Laboratory results: patent US20100120763A1, “IMIDAZO[5,1-C][1,2,4]BENZOTRIAZINE DERIVATIVES AS INHIBITORS OF PHOSPHODIESTERASES” (priority 2008, published 2010)

Assays:
PDE10A = molecular target: T1, PDE10A (Homo sapiens, UniProt Q9Y233); assay: Inhibition of recombinant PDE10A (baculovirus/SF21 system), [3H]-cAMP SPA; assay type: biochemical; conditions: recombinant PDE10A1, cytosolic; 0.1 μM [3H]-cAMP, 37° C., 30 minutes; read-out: PDE10A IC50
T1 construct: made in house; host or cells: SF21 insect cells (baculovirus)

PDE2A = molecular target: T2, PDE2A (Homo sapiens, UniProt O00408); assay: Inhibition of recombinant PDE2A (expressed in baculovirus/SF21-cells), [3H]-cAMP SPA; assay type: biochemical
T2 construct: made in house; host or cells: SF21 insect cells (baculovirus)
Summary of the method: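 Membrane fraction of baculovirus/SF21-expressed PDE2A was incubated 30 min at 37° C in Tris-HCl/MgCl2 pH 7.4 with 0.5 μM [3H]-cAMP and 1000 nM cGMP as activator. Product was detected by SPA scintillation. IC50 used a Hill-plot 2-parameter model.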

T2 sequence (O00408 whole entry): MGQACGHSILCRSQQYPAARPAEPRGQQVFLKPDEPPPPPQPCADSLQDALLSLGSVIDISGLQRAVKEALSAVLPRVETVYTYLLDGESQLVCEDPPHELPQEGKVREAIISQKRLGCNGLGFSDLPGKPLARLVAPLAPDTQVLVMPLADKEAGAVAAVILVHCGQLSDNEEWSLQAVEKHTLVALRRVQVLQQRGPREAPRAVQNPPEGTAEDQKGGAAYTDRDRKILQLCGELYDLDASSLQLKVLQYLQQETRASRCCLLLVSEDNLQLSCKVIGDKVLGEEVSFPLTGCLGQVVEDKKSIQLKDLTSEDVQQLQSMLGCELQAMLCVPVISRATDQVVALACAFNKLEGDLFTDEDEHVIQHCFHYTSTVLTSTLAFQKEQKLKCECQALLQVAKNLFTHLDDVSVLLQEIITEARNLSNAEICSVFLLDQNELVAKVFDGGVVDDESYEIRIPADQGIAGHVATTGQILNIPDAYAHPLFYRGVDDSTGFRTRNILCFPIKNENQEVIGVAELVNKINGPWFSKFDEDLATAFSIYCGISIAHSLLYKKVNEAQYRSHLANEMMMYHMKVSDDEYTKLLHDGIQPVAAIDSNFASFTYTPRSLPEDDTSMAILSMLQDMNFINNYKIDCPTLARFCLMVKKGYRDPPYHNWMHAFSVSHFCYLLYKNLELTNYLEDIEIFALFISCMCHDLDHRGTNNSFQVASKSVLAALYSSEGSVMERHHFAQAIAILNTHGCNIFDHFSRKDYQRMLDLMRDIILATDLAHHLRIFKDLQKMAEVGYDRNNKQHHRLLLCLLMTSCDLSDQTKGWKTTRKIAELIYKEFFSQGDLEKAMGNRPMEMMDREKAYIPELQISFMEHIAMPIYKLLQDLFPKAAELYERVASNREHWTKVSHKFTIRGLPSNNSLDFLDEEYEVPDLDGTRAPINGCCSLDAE
T1 sequence (Q9Y233 1-779 isoform Q9Y233-1): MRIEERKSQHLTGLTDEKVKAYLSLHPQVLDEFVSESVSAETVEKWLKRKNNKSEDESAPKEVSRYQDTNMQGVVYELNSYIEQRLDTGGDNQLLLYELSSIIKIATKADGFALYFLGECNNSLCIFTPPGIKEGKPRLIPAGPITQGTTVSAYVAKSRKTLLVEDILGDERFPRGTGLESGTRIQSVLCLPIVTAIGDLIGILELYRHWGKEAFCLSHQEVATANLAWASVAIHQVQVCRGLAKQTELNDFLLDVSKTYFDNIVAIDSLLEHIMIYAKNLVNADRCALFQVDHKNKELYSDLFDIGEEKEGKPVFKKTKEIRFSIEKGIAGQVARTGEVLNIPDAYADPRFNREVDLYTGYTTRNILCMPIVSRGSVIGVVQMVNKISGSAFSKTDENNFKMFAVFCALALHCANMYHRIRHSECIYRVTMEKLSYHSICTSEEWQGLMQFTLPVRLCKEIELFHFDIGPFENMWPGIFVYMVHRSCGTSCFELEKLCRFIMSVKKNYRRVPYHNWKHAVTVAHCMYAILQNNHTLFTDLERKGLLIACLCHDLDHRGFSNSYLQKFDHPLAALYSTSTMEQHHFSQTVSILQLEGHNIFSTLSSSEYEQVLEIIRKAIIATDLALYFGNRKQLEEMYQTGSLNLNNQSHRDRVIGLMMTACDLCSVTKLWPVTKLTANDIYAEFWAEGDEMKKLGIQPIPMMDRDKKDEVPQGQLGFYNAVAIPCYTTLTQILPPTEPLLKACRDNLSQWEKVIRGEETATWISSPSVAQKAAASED

Structure (SMILES) | melting point | IC50 (PDE10A) | IC50 (PDE2A)
Cc1nc(-c2cc(Cl)ccc2Cl)n2c1nnc1ccc(Cl)cc12 [Example 37, 8-chloro-1-(2,5-dichlorophenyl)-3-methylbenzo[e]imidazo[5,1-c][1,2,4]triazine] | 188 to 190 °C | 77.2 nM | 5.31 nM
Cc1ncccc1-c1nc(C)c2nnc3ccc(Cl)cc3n12 [Example 38, 8-chloro-3-methyl-1-(2-methylpyridin-3-yl)benzo[e]imidazo[5,1-c][1,2,4]triazine] | 235 to 236 °C | 207 nM | 41.4 nM
Cc1nc(-c2ccnn2C)n2c1nnc1ccc(Cl)cc12 [Example 40, 8-chloro-3-methyl-1-(1-methyl-1H-pyrazol-5-yl)benzo[e]imidazo[5,1-c][1,2,4]triazine] | 230 to 231 °C | 3940 nM | 1410 nM
Cc1nc(-c2ccccc2C(N)=O)n2c1nnc1ccc(Cl)cc12 [Example 41, 2-(8-chloro-3-methylbenzo[e]imidazo[5,1-c][1,2,4]triazin-1-yl)benzamide] | 249 to 251 °C | 3120 nM | > 1000 nM
Cc1ncn2c1nnc1ccc(Cl)cc12 [Example 42, 8-chloro-3-methylbenzo[e]imidazo[5,1-c][1,2,4]triazine] | 210 °C | > 10000 nM | > 10000 nM
Cc1nc(-c2cc(OC(C)C)ccc2F)n2c1nnc1ccc(Cl)cc12 [Example 43, 8-chloro-1-(2-fluoro-5-isopropoxyphenyl)-3-methylbenzo[e]imidazo[5,1-c][1,2,4]triazine] | 174 to 177 °C | > 500 nM | 233 nM
COc1ccc2nnc3c(C)nc(-c4cc(OC(C)C)ccc4F)n3c2c1 [Example 44, 1-(2-fluoro-5-isopropoxyphenyl)-8-methoxy-3-methylbenzo[e]imidazo[5,1-c][1,2,4]triazine] | 204 to 207 °C | 1550 nM | 121 nM
COc1cc2nnc3c(C)nc(-c4ccccn4)n3c2cc1OC [Example 50, 7,8-dimethoxy-3-methyl-1-(pyridin-2-yl)benzo[e]imidazo[5,1-c][1,2,4]triazine] | 199 to 202 °C | 71.2 nM | 2190 nM
Cc1nc(-c2ccccc2Cl)n2c1nnc1ccc(-c3ccccc3Cl)cc12 [Example 172, 1,8-Bis-(2-chloro-phenyl)-3-methyl-imidazo[5,1-c][1,2,4]benzotriazine] | 172 to 175 °C | 6.55 nM | 1.28 nM
Cc1nc(-c2cccc(Cl)c2Cl)n2c1nnc1ccc(-c3cccc(Cl)c3Cl)cc12 [Example 173, 1,8-Bis-(2,3-dichloro-phenyl)-3-methyl-imidazo[5,1-c][1,2,4]benzotriazine] | 207 to 210 °C | 57.6 nM | 61.5 nM
CCCOc1ccc(F)c(-c2ccc3nnc4c(C)nc(-c5cc(OCCC)ccc5F)n4c3c2)c1 [Example 174, 1,8-Bis-(2-fluoro-5-propoxy-phenyl)-3-methyl-imidazo[5,1-c][1,2,4]benzotriazine] | 134 to 136 °C | 41.1 nM | 3.55 nM
CCCCOc1ccc(F)c(-c2ccc3nnc4c(C)nc(-c5cc(OCCCC)ccc5F)n4c3c2)c1 [Example 175, 1,8-Bis-(5-butoxy-2-fluoro-phenyl)-3-methyl-imidazo[5,1-c][1,2,4]benzotriazine] | 94 to 95 °C | 21.6 nM | 0.77 nM
Cc1nc(-c2cc(C(F)(F)F)ccc2F)n2c1nnc1ccc(-c3cc(C(F)(F)F)ccc3F)cc12 [Example 176, 1,8-Bis-(2-fluoro-5-trifluoromethyl-phenyl)-3-methyl-imidazo[5,1-c][1,2,4]benzotriazine] | 155 to 158 °C | 117 nM | 137 nM
Cc1nc(-c2ccccc2Cl)n2c1nnc1ccc(N3CCOCC3)cc12 [Example 184, 1-(2-Chloro-phenyl)-3-methyl-8-morpholin-4-yl-imidazo[5,1-c][1,2,4]benzotriazine] | 242 to 245 °C | 9.77 nM | 6.39 nM
Cc1nc(-c2ccccc2Cl)n2c1nnc1ccc(-n3ccnc3)cc12 [Example 185, 1-(2-Chloro-phenyl)-8-imidazol-1-yl-3-methyl-imidazo[5,1-c][1,2,4]benzotriazine] | 95 to 98 °C | 8.97 nM | 7.14 nM
Cc1nc(-c2ccccc2Cl)n2c1nnc1ccc(N3CCN(C)CC3)cc12 [Example 186, 1-(2-Chloro-phenyl)-3-methyl-8-(4-methyl-piperazin-1-yl)-imidazo[5,1-c][1,2,4]benzotriazine] | 230 °C | 9.02 nM | 7.49 nM
Cc1nc(-c2ccccc2Cl)n2c1nnc1ccc(OCc3ccc(F)cc3)cc12 [Example 187, 1-(2-Chloro-phenyl)-8-(4-fluoro-benzyloxy)-3-methyl-imidazo[5,1-c][1,2,4]benzotriazine] | 174 to 177 °C | 24.6 nM | 9.72 nM
